From the NIST ThermoML archive (doi:10.1021/je2012633)
± gives the expanded uncertainty stated by the source.

Legend:
[1] = 101 kPa, Liquid, Vibrating tube method
[2] = xn = mol fraction of the nth substance listed; details: 101 kPa, Liquid, Vibrating tube method

CCOS(=O)(=O)[O-].CCn1cc[n+](C)c1 [1-ethyl-3-methylimidazolium ethyl sulfate]
[1]
Details | mass density [kg/m3]
288.15 K | 1245.3 ± 1.6
298.15 K | 1238.3 ± 1.6
308.15 K | 1231.6 ± 1.6
318.15 K | 1224.9 ± 1.6

CCOS(=O)(=O)[O-].CCn1cc[n+](C)c1 [1-ethyl-3-methylimidazolium ethyl sulfate] + CCO
mass density [kg/m3], [2]
Details | 288.15 K | 298.15 K | 308.15 K | 318.15 K
x1 = 0.0494 | 864.9 ± 1 | 856.6 ± 1 | 848.1 ± 1 | 839.7 ± 1
x1 = 0.1233 | 943.6 ± 1 | 935.6 ± 1 | 927.6 ± 1 | 919.5 ± 1
x1 = 0.2469 | 1035.3 ± 1 | 1027.6 ± 1 | 1019.9 ± 1 | 1012.3 ± 1
x1 = 0.3485 | 1088.4 ± 1.1 | 1080.9 ± 1.1 | 1073.4 ± 1 | 1066 ± 1
x1 = 0.4727 | 1136.8 ± 1.1 | 1129.5 ± 1.1 | 1122.2 ± 1.1 | 1115 ± 1.1
x1 = 0.5667 | 1164.9 ± 1.1 | 1157.7 ± 1.1 | 1150.6 ± 1.1 | 1143.5 ± 1.1
x1 = 0.6483 | 1185.3 ± 1.2 | 1178.2 ± 1.2 | 1171.2 ± 1.2 | 1164.2 ± 1.2
x1 = 0.7421 | 1205.3 ± 1.3 | 1198.3 ± 1.3 | 1191.3 ± 1.3 | 1184.4 ± 1.3
x1 = 0.827 | 1220.5 ± 1.4 | 1213.8 ± 1.4 | 1206.8 ± 1.4 | 1200 ± 1.3
x1 = 0.9211 | 1234.8 ± 1.5 | 1227.9 ± 1.5 | 1221.1 ± 1.5 | 1214.3 ± 1.5
x1 = 1 | 1245.3 ± 1.6 | 1238.3 ± 1.6 | 1231.6 ± 1.6 | 1224.9 ± 1.6

CCOS(=O)(=O)[O-].CCn1cc[n+](C)c1 [1-ethyl-3-methylimidazolium ethyl sulfate] + O
mass density [kg/m3], [2]
Details | 288.15 K | 298.15 K | 308.15 K | 318.15 K
x1 = 0.0319 | 1064.5 ± 1 | 1059.9 ± 1 | 1054.4 ± 1 | 1048.4 ± 1
x1 = 0.07 | 1114.1 ± 1 | 1108 ± 1 | 1101.8 ± 1 | 1095.1 ± 1
x1 = 0.1022 | 1141.9 ± 1 | 1135.3 ± 1 | 1128.5 ± 1 | 1121.5 ± 1
x1 = 0.1961 | 1186.1 ± 1 | 1178.9 ± 1 | 1171.8 ± 1 | 1164.6 ± 1
x1 = 0.2988 | 1208.5 ± 1 | 1201.4 ± 1 | 1194.3 ± 1 | 1187.2 ± 1
x1 = 0.395 | 1220.4 ± 1 | 1213.4 ± 1 | 1206.3 ± 1 | 1199.3 ± 1
x1 = 0.4939 | 1228.4 ± 1.1 | 1221.4 ± 1.1 | 1214.4 ± 1.1 | 1207.4 ± 1.1
x1 = 0.5829 | 1233.3 ± 1.1 | 1226.4 ± 1.1 | 1219.4 ± 1.1 | 1212.5 ± 1.1
x1 = 0.6798 | 1237.1 ± 1.2 | 1230.2 ± 1.2 | 1223.4 ± 1.2 | 1216.6 ± 1.2
x1 = 0.7975 | 1240.8 ± 1.3 | 1233.9 ± 1.3 | 1227.1 ± 1.3 | 1220.3 ± 1.3
x1 = 0.8726 | 1242.6 ± 1.4 | 1235.8 ± 1.4 | 1229 ± 1.4 | 1222.3 ± 1.4
x1 = 1 | 1245.3 ± 1.6 | 1238.3 ± 1.6 | 1231.6 ± 1.6 | 1224.9 ± 1.6

CCCCCCCCOS(=O)(=O)[O-].CCn1cc[n+](C)c1 [1-ethyl-3-methylimidazolium octyl sulfate]
[1]
Details | mass density [kg/m3]
288.15 K | 1100.7 ± 1
298.15 K | 1093.8 ± 1
308.15 K | 1087 ± 1
318.15 K | 1080.5 ± 1

CCCCCCCCOS(=O)(=O)[O-].CCn1cc[n+](C)c1 [1-ethyl-3-methylimidazolium octyl sulfate] + CCO
mass density [kg/m3], [2]
Details | x1 = 0.098 | x1 = 0.1901 | x1 = 0.2985 | x1 = 0.3955 | x1 = 0.4964 | x1 = 0.5975 | x1 = 0.6844 | x1 = 0.792 | x1 = 0.9047 | x1 = 1
288.15 K | 906.4 ± 1 | 964.1 ± 1 | 1006.3 ± 1 | 1031.6 ± 1 | 1050.9 ± 1 | 1065.6 ± 1 | 1075.6 ± 1 | 1085.7 ± 1 | 1094.4 ± 1 | 1100.7 ± 1
298.15 K | 898.5 ± 1 | 956.5 ± 1 | 998.9 ± 1 | 1024.4 ± 1 | 1043.9 ± 1 | 1058.7 ± 1 | 1068.8 ± 1 | 1078.9 ± 1 | 1087.5 ± 1 | 1093.8 ± 1
308.15 K | 890.7 ± 1 | 949 ± 1 | 991.8 ± 1 | 1017.4 ± 1 | 1037 ± 1 | 1051.9 ± 1 | 1062.1 ± 1 | 1072.3 ± 1 | 1081 ± 1 | 1087 ± 1
318.15 K | 882.8 ± 1 | 941.4 ± 1 | 984.4 ± 1 | 1010.3 ± 1 | 1030.1 ± 1 | 1045.2 ± 1 | 1055.4 ± 1 | 1065.8 ± 1 | 1074.4 ± 1 | 1080.5 ± 1

CCCCCCCCOS(=O)(=O)[O-].CCn1cc[n+](C)c1 [1-ethyl-3-methylimidazolium octyl sulfate] + O
mass density [kg/m3], [2]
Details | x1 = 0.0053 | x1 = 0.1002 | x1 = 0.3923 | x1 = 0.5963 | x1 = 0.7373 | x1 = 0.7747 | x1 = 0.8545 | x1 = 0.9371 | x1 = 1
298.15 K | 1005.3 ± 1 | 1060.6 ± 1 | 1086.3 ± 1 | 1090.5 ± 1 | 1092.1 ± 1 | 1092.4 ± 1 | 1093 ± 1 | 1093.5 ± 1 | 1093.8 ± 1
308.15 K | 1001.8 ± 1 | 1054 ± 1 | 1079.6 ± 1 | 1083.8 ± 1 | 1085.5 ± 1 | 1085.7 ± 1 | 1086.4 ± 1 | 1086.9 ± 1 | 1087 ± 1
318.15 K | 997.3 ± 1 | 1047.4 ± 1 | 1072.9 ± 1 | 1077.2 ± 1 | 1079.1 ± 1 | 1079.2 ± 1 | 1079.9 ± 1 | 1080.4 ± 1 | 1080.5 ± 1

CCCCCCOS(=O)(=O)[O-].CC[n+]1ccn(C)c1 [3-ethyl-1-methyl-1H-imidazolium hexyl sulfate]
[1]
Details | mass density [kg/m3]
288.15 K | 1136.6 ± 1.4
298.15 K | 1129.6 ± 1.4
308.15 K | 1123.1 ± 1.4
318.15 K | 1116.6 ± 1.4
